# According to PMC8175350, “Drug repurposing screens identify chemical entities for the development of COVID-19 interventions” (Nature Communications, 2021):
# “And” between values parts separate entries of the source, which are not always exact repeats. Identical values can stand only once. Like-named read-outs stand apart in the source and are kept apart here.
# Columns and labels:
# [1] = tested on: SARS-CoV-2; assay type: cell-based
# [2] = tested on: SARS-CoV-2; assay: microbe, parasite or virus in culture; assay type: cell-based; conditions: for %infected: replicate wells n=1-3
# [3] = tested on: SARS-CoV-2; assay: microbe, parasite or virus in culture; assay type: cell-based; conditions: for %infected: Calu-3, replicate wells n=1-3; for EC50: read-out: Calu-3 SARS-CoV-2 EC50
# [4] = tested on: HeLa-ACE2 cells; assay: cells; conditions: Homo sapiens
# [5] = in vitro; conditions: human
# [6] = tested on: COVID-19; conditions: shortened from 15; ref [7]; cited from earlier work
# [7] = tested on: COVID-19; conditions: ref [9]; cited from earlier work
# [8] = tested on: HeLa-ACE2 cells; assay: Total cell count in the HeLa-ACE2 TOA assay; assay type: cell-based; conditions: Homo sapiens
# Excerpt: Supplement 41467_2021_23328_MOESM3_ESM.xlsx, sheet "Table S1" | column: HeLa-ACE2 TOA cell count
# [9] = tested on: Calu-3 cells; assay: Uninfected Calu-3 48 h Cell-Titer Glo cytotoxicity counter screen
# [10] = tested on: Calu-3 cells; assay: cells; conditions: Homo sapiens
# [11] = tested on: SARS-CoV-2; assay: microbe, parasite or virus in culture; assay type: cell-based; conditions: for SARS-CoV-2 % infected cells: 10 µM after 1 h infection; for TOA: HeLa-ACE2, replicate wells n=1-3
# [12] = tested on: HeLa-ACE2 cells; assay: Uninfected HeLa-ACE2 24 h live/dead cytotoxicity counter screen; assay type: cell-based, human; conditions: for cytotox: HeLa-ACE2, replicate wells n=1-3
# [13] = as above; assay type: cell-based, human; conditions: human, uninfected HeLa-ACE2 cells
# [14] = curve plateau at infinite concentration
smiles,measurement,setting,value
CCC(CC)COC(=O)[C@H](C)N[P@](=O)(OC[C@H]1O[C@@](C#N)(c2ccc3c(N)ncnn23)[C@H](O)[C@@H]1O)Oc1ccccc1 [Remdesivir],effect on viral replication in ALI-HBECs,[1],inhibited viral replication
same,increase in EC50 from MOI = 0.09 to MOI = 2.2,[2]; HeLa-ACE2,2.7 fold
same,EC50,"[2]; HeLa-ACE2, individual values of 9 independent experiments, read-out: EC50 (µM), Fig 1c",191 nM and 83 nM and 141 nM and 130 nM and 138 nM (2×)
same,%infected,"[2]; HeLa-ACE2, concentration log[M] -5.61909",-99.4999% and -95.8005% and -94.7545% and -97.535% and -100.056% and -100.005% and -100.014% and -99.12% and -100%
same,%infected,"[2]; HeLa-ACE2, concentration log[M] -6.09621",-99.2124% and -98.9733% and -96.3176% and -99.76% and -100.229% and -100.013%
same,%infected,"[2]; HeLa-ACE2, concentration log[M] -8.48182",18.582% and -4.2719% and -2.02% and 15.6179% and -5.577% and 7.137% and 7.4% and 8.398% and -2.488%
same,%infected,"[2]; HeLa-ACE2, concentration log[M] -8.95894",3.102% and 6.636% and 1.634% and -11.6076% and 6.069% and -5.672% and -8.653%
same,Emax,"[2]; Severe acute respiratory syndrome coronavirus 2, HeLa-ACE2, 24 h, curve plateau at infinite concentration, read-out: HeLa-ACE2 CoV-2 Sinf Average",100%
same,EC50,"[2]; Severe acute respiratory syndrome coronavirus 2, HeLa-ACE2, HeLa-ACE2, MOI 0.51, read-out: EC50",126 nM
same,EC50,"[2]; Severe acute respiratory syndrome coronavirus 2, HeLa-ACE2, HeLa-ACE2, MOI 1.1, read-out: EC50",145 nM
same,EC50,"[2]; Severe acute respiratory syndrome coronavirus 2, HeLa-ACE2, HeLa-ACE2, MOI 2.2, read-out: EC50",223 nM
same,EC50,"[2]; Severe acute respiratory syndrome coronavirus 2, HeLa-ACE2, reconfirmed hits, read-out: HeLa-ACE2 SARS-CoV-2 EC50",127 nM
same,EC50,"[2]; Severe acute respiratory syndrome coronavirus 2, HeLa-ACE2, value in brackets*: remdesivir control, read-out: HeLa-ACE2 SARS-CoV-2 EC50",123 nM
same,%infected,[3]; concentration log[M] -5,-100% and -99.897% and -100.088% and -98.7564% and -99.5799% and -100.046% and -100.098% and -100.338% and -99.9472%
same,%infected,[3]; concentration log[M] -5.47712,-99.1601% and -98.4923% and -99.234% and -99.2295% and -99.4568% and -99.7507% and -99.3361% and -99.5394% and -98.7541%
same,%infected,[3]; concentration log[M] -5.95424,-89.5337% and -93.208% and -92.5628% and -91.8668% and -95.3312% and -93.4282% and -90.0849% and -90.1886% and -82.0673%
same,%infected,[3]; concentration log[M] -6.43136,-39.9603% and -66.0539% and -61.9632% and -57.8703% and -42.505% and -37.1362% and -41.0562% and -18.9015% and -48.5538%
same,%infected,[3]; concentration log[M] -6.90849,15.313% and 14.726% and -3.639% and 30.6752% and -6.396% and 10.9651% and -1.713% and -1.879%
same,%infected,[3]; concentration log[M] -7.38561,1.995% and -3.779% and 16.4097% and -7.2105% and 10.833% and 28.7058% and 9.608% and 17.5254%
same,%infected,[3]; concentration log[M] -7.86273,12.1902% and -3.292% and 25.9949% and 14.3562% and 4.371% and -33.8895% and 13.327% and 8.365% and 21.3189%
same,%infected,[3]; concentration log[M] -8.33985,-5.4528% and 0% and -9.776% and -9.382% and 5.183% and 10.3172% and 15.4186% and 28.7222%
same,Emax,"[3]; Severe acute respiratory syndrome coronavirus 2, Calu-3, 48 h, curve plateau at infinite concentration, read-out: Calu-3 CoV-2 Sinf Average",102%
same,EC50,"[3]; Severe acute respiratory syndrome coronavirus 2, Calu-3, reconfirmed hits",606 nM
same,EC50,"[3]; Severe acute respiratory syndrome coronavirus 2, Calu-3, value in brackets*: remdesivir control",444 nM
same,Emax,"[4]; HeLa-ACE2, 24 h, read-out: HeLa-ACE2 cell count Sinf Average",100%
same,EC50,"[4]; HeLa-ACE2, read-out: HeLa-ACE2 cell count EC50 GeoMean",> 9600 nM
same,EC50,"[4]; HeLa-ACE2, read-out: cell count in infection assay EC50, HeLa-ACE2, geomean, ^↑ = increasing dose-response curve",> 1200 nM
same,CC50,"[5]; Calu-3 Uninf. cells CC50 (µM), reconfirmed hits",> 30 µM
same,CC50,"[5]; Calu-3 Uninf. cells CC50 (µM), value in brackets*: remdesivir control",> 30 µM
same,CC50,[5]; Calu-3 uninfected cytotoxicity CC50 GeoMean,> 29.9 µM
same,CC50,"[5]; cytotoxicity CC50, uninfected Calu-3, geomean",> 30 µM
same,median time to recovery,[6],11 days
same,mortality of hospitalized COVID-19 patients,[7],failed to reduce mortality
same,Emax,"[8]; HeLa-ACE2, 10 h, curve plateau at infinite concentration, read-out: HeLa-ACE2 TOA cell count Sinf Average",100%
same,EC50,"[8]; HeLa-ACE2, read-out: HeLa-ACE2 TOA cell count EC50 GeoMean",> 9610 nM
same,cytotox,"[9]; Calu-3, concentration log[M] -5, replicate wells n=1-3",10.3923 and -8.975 and 0.952 and 18.306 and 7.959 and -3.54 and 10.6309 and -10.2579 and 5.131
same,Calu-3 uninfected cytotoxicity Sinf Average,[9]; [14],-95%
same,Emax,"[10]; Calu-3, 48 h, read-out: Calu-3 cell count Sinf Average",103%
same,EC50,"[10]; Calu-3, read-out: Calu-3 cell count EC50 GeoMean",700 nM
same,EC50,"[10]; Calu-3, read-out: cell count EC50, Calu-3, geomean, ^↑ = increasing dose-response curve",537 nM
same,SARS-CoV-2 % infected cells,[11]; 4:00:00 post infection,0.0558% and 0.1777% and 0.2107%
same,SARS-CoV-2 % infected cells,[11]; 5:00:00,0.7242% and 1.236% and 0.5657%
same,SARS-CoV-2 % infected cells,[11]; 6:00:00,1.289% and 0.8606%
same,SARS-CoV-2 % infected cells,[11]; 7:00:00,0.8435% and 0.9162%
same,SARS-CoV-2 % infected cells,[11]; 8:00:00,1.114% and 1.68%
same,SARS-CoV-2 % infected cells,[11]; 10:00:00,1.9707% and 2.635%
same,SARS-CoV-2 % infected cells,[11]; 11:00:00,2.255% and 2.403%
same,SARS-CoV-2 % infected cells,[11]; 12:00:00,4.554%
same,SARS-CoV-2 % infected cells,[11]; 24:00:00,1.211% and 0.9586%
same,activity when treatment was initiated at 1 hpi,"[11]; HeLa-ACE2, 10 µM",effectively blocked the infection
same,TOA,[11]; concentration log[M] -5.61909,-92.6138 and -80.8583 and -88.199 and -76.7514 and -93.5448 and -83.4805 and -80.3661 and -74.8437 and -99.8898
same,TOA,[11]; concentration log[M] -6.09621,-68.7737 and -49.7255 and -48.7992 and -40.2692 and -44.1304 and -40.198 and -47.0122 and -58.4412 and -51.4261
same,TOA,[11]; concentration log[M] -6.57334,-20.3161 and -18.1481 and -10.1709 and -1.508 and -0.9303 and -16.8539 and -5.25 and -7.77
same,TOA,[11]; concentration log[M] -7.05046,-7.493 and -17.8403 and -13.1433 and -19.1912 and -3.289 and -5.355 and 2.9336 and -2.419
same,TOA,[11]; concentration log[M] -7.52758,-5.952 and 2.422 and 1.456 and -1.724 and -2.397 and 2.2617 and 7.029 and -1.667 and -1.15
same,TOA,[11]; concentration log[M] -8.0047,5.958 and 5.629 and 3.068 and -1.8321 and 3.442 and 6.226 and 7.961 and 4.025 and 11.376
same,TOA,[11]; concentration log[M] -8.48182,4.28 and 10.7449 and 12.4349 and -4.585 and 4.364 and -1.184 and 4.823 and 5.851 and -1.616
same,TOA,[11]; concentration log[M] -8.95894,-2.286 and -0.1755 and 11.8345 and -1.884 and 3.08 and 1.621 and -5.04 and -0.06688 and -11.3351
same,Emax,"[11]; Severe acute respiratory syndrome coronavirus 2, HeLa-ACE2, 10 h, curve plateau at infinite concentration, read-out: HeLa-ACE2 TOA CoV-2 Sinf Average",102%
same,EC50,"[11]; Severe acute respiratory syndrome coronavirus 2, HeLa-ACE2, read-out: HeLa-ACE2 TOA CoV-2 EC50 GeoMean",795 nM
same,EC50,"[11]; Severe acute respiratory syndrome coronavirus 2, HeLa-ACE2, fixed 10 hpi, geomean, read-out: CoV-2 TOA EC50",770 nM
same,cytotox,[12]; concentration log[M] -5,-48.6076 and -58.6844 and -51.3625 and -48.213 and -50.9294 and -56.7143 and -47.8141 and -43.3369 and -36.9299
same,cytotox,[12]; concentration log[M] -5.47712,-19.1561 and -17.8418 and -30.9661 and -14.3691 and -23.5688 and -36.4286 and -15.3846 and -28.169 and -29.0323
same,cytotox,[12]; concentration log[M] -5.95424,6.751 and 11.4789 and 9.414 and -2.699 and 2.9 and 4.429 and 8.301 and 5.85 and 4.672
same,cytotox,[12]; concentration log[M] -6.43136,-5.57 and 5.718 and -0.9083 and 5.1787 and 2.305 and -8.143 and -9.851 and -10.8342 and 4.561
same,cytotox,[12]; concentration log[M] -6.90849,2.8692 and 11.5649 and -1.239 and 5.033 and 15.0929 and 0 and 8.342
same,cytotox,[12]; concentration log[M] -7.38561,-3.882 and -2.966 and 0.578 and 12.6185 and 0.223 and 8.571 and 4.759 and -6.934 and 4.338
same,cytotox,[12]; concentration log[M] -7.86273,4.3038 and -8.727 and 10.4046 and -9.847 and -4.535 and -6.857 and 3.25 and -6.674
same,cytotox,[12]; concentration log[M] -8.33985,0.2532 and 0.129 and -1.817 and 2.115 and -17.6208 and -2.857 and -8.744 and 4.117 and 1.669
same,HeLa-ACE2 uninfected cytotoxicity Sinf Average,[12]; [14],-86%
same,CC50 at 24 h,"[13]; geomean, read-out: uninfected HeLa-ACE2 cytotoxicity CC50",> 9670 nM
same,CC50 at 24 h,"[13]; reconfirmed hits, read-out: HeLa-ACE2 Uninf. cells CC50",9970 nM
same,CC50 at 24 h,"[13]; value in brackets*: remdesivir control, read-out: HeLa-ACE2 Uninf. cells CC50",9670 nM
same,CC50 at 24 h,[13]; read-out: HeLa-ACE2 uninfected cytotoxicity CC50 GeoMean,9970 nM
